Assay results reported in PMC10824152 (Journal of medicinal chemistry, 2023).

Assays:
rat nNOS = rat nNOS (Rattus norvegicus, UniProt P29476)
human nNOS = human nNOS (Homo sapiens, UniProt P29475); settings: ratio of Ki values versus 17

SMILES | Loss in potency as compared to 17, rat nNOS (rat nNOS) | Lower potency than 17, human nNOS (human nNOS)
COc1cc(N)nc(CCc2cc(CCN(C)C)cc(F)c2F)c1.Cl.Cl [Compound 18, 6-(5-(2-(Dimethylamino)ethyl)-2,3-difluorophenethyl)-4-methoxypyridin-2-amine dihydrochloride] | 5 fold | 
Cc1cc(CCc2cc(CCN(C)C)cc(F)c2F)nc(N)n1.Cl.Cl [Compound 19, 4-(5-(2-(Dimethylamino)ethyl)-2,3-difluorophenethyl)-6-methylpyrimidin-2-amine dihydrochloride] | 438 fold | 
CN(C)CCc1cc(F)c(F)c(CCc2cc(C(F)F)cc(N)n2)c1.Cl.Cl [Compound 23, 4-(Difluoromethyl)-6-(5-(2-(dimethylamino)ethyl)-2,3-difluorophenethyl)pyridin-2-amine dihydrochloride] |  | 14 fold
